{
  "source": "patent US7196084B2",
  "about": "“Cdc25 phosphatase inhibitors” (Societe de Conseils de Recherches et d'Applications …, priority 2000, dated 2007)",
  "origin": "cited, not measured here",
  "key": {"[1]": {"molecular_target": "T1, cdc25-B2 (Homo sapiens, UniProt P30305)", "T1 sequence (P30305 1-539 isoform P30305-3)": "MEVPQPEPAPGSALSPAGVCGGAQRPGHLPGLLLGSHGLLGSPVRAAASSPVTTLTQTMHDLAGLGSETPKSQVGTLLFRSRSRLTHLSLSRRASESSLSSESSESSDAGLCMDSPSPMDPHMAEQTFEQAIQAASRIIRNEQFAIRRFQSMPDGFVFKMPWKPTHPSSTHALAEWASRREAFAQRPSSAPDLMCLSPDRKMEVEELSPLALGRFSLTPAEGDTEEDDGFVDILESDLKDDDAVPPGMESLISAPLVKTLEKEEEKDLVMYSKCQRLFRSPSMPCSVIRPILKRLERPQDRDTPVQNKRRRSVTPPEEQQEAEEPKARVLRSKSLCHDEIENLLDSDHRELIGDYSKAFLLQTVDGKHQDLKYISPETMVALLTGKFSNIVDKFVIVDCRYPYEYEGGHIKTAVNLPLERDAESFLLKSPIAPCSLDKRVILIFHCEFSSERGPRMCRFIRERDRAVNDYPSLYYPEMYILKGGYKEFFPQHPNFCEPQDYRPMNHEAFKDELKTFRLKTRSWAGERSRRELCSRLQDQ", "conditions": "read-out: inhibition constant (Ki) on cdc25-B2; cited from earlier work"}, "[2]": {"molecular_target": "T2, cdc25-A (Homo sapiens, UniProt P30304)", "T2 sequence (P30304 1-524)": "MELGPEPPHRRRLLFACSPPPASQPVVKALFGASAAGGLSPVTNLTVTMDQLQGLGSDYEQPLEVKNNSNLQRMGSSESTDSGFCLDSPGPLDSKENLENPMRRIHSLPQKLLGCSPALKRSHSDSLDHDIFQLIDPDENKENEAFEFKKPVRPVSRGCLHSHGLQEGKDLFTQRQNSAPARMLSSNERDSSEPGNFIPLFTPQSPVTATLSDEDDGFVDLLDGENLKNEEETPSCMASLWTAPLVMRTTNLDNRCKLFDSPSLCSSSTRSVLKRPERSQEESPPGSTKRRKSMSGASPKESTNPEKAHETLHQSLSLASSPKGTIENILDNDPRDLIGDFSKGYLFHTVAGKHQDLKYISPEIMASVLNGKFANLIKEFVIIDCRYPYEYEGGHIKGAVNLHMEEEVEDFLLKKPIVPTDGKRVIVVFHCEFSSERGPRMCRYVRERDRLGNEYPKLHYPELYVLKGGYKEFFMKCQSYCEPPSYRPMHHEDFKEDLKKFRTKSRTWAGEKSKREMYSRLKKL", "conditions": "read-out: inhibition constant (Ki) on cdc25-A; cited from earlier work"}, "[3]": {"molecular_target": "T3, cdc25-C (Homo sapiens, UniProt P30307)", "T3 sequence (P30307 1-473)": "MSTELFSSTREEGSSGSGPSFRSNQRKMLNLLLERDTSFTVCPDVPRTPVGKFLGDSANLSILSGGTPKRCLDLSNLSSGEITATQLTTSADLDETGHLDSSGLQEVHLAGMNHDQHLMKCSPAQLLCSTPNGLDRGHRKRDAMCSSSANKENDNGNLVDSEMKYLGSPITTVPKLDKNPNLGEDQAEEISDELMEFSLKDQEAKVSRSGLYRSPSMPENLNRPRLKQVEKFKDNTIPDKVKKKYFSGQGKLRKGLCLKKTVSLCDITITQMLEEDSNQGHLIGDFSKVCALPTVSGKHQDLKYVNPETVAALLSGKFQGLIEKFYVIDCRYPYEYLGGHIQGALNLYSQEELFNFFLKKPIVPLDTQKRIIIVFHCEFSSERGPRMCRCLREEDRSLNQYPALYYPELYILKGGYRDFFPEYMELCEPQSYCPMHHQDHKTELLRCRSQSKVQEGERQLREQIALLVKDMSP", "conditions": "read-out: inhibition constant (Ki) on cdc25-C; cited from earlier work"}},
  "data": [
    {"molecule": "CC1=C(SCCO)C(=O)c2ccccc2C1=O", "note": "[Cpd5]", "values": [
      {"measurement": "Ki", "setting": "[1]", "value": 1.7, "unit": "µM"},
      {"measurement": "Ki", "setting": "[2]", "value": 15, "unit": "µM"},
      {"measurement": "Ki", "setting": "[3]", "value": 1.3, "unit": "µM"}
    ]}
  ]
}
